Test results: US20240299352A1, “COMBINATION THERAPIES WITH SETD2 INHIBITORS” (Epizyme, Inc., priority 2021, published 2024)

Tests used:
[1] = system: diffuse large B-cell lymphoma (DLBCL) cell lines; test: Pre-treatment model combination study with Cpd. No. 15 (7 days pre-treatment, then combination; Table G), CellTiter-Glo viability, Loewe Volume; details: 7 days pre-treatment with Cpd. No. 15, then combination
[2] = system: Z138; test: Co-treatment combination study with Cpd. No. 15, CellTiter-Glo viability, Loewe Volume; format: cell-based; details: in combination with Cpd. No. 15, seven days, mantle cell lymphoma cell line Z138 (CRL-3001)
Method in brief: (§1)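 Cells growing log-linearly are dispensed onto plates pre-loaded with Cpd. No. 15 and the partner drug, then incubated seven days in humidified 5% CO2 at 37° C. CellTiter-Glo measures ATP, and percent inhibition at each concentration comes from variable-slope four-parameter logistic curves.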

[3] = system: MAVER1; test: as above; format: cell-based; details: in combination with Cpd. No. 15, seven days, mantle cell lymphoma cell line MAVER1 (CRL-3008)
Method in brief: as §1

[4] = system: HT; test: as above; format: cell-based; details: in combination with Cpd. No. 15, seven days, DLBCL cell line HT
Method in brief: as §1

[5] = system: KARPAS422; test: as above; format: cell-based; details: in combination with Cpd. No. 15, seven days, DLBCL cell line KARPAS422
Method in brief: as §1

[6] = system: SUDHL2; test: as above; format: cell-based; details: in combination with Cpd. No. 15, seven days, DLBCL cell line SUDHL2
Method in brief: as §1

[7] = system: RL; test: as above; format: cell-based; details: in combination with Cpd. No. 15; 6-Day Cotreatment; DLBCL cell line RL
[8] = system: DOHH2; test: as above; format: cell-based; details: in combination with Cpd. No. 15, seven days, DLBCL cell line DOHH2
Method in brief: as §1

[9] = system: SUDHL4; test: as above; format: cell-based; details: in combination with Cpd. No. 15, seven days, DLBCL cell line SUDHL4
Method in brief: as §1

[10] = system: Pfeiffer; test: as above; format: cell-based; details: in combination with Cpd. No. 15, seven days, DLBCL cell line Pfeiffer
Method in brief: as §1

[11] = system: DB; test: as above; format: cell-based; details: in combination with Cpd. No. 15, seven days, DLBCL cell line DB
Method in brief: as §1

[12] = system: REC1; test: as above; format: cell-based; details: in combination with Cpd. No. 15, seven days, mantle cell lymphoma cell line REC1 (CRL-3004)
Method in brief: as §1

[13] = system: WILL2; test: as above; format: cell-based; details: in combination with Cpd. No. 15, seven days, DLBCL cell line WILL2
Method in brief: as §1

[14] = system: JVM2; test: as above; format: cell-based; details: in combination with Cpd. No. 15, seven days, mantle cell lymphoma cell line JVM2 (CRL-3002)
Method in brief: as §1

[15] = system: WSUNHL; test: as above; format: cell-based; details: in combination with Cpd. No. 15, seven days, DLBCL cell line WSUNHL
Method in brief: as §1

[16] = system: MINO; test: as above; format: cell-based; details: in combination with Cpd. No. 15, seven days, mantle cell lymphoma cell line MINO (CRL-3000)
Method in brief: as §1

[17] = system: SUDHL8; test: as above; format: cell-based; details: in combination with Cpd. No. 15, seven days, DLBCL cell line SUDHL8
Method in brief: as §1

[18] = system: JEKO1; test: as above; format: cell-based; details: in combination with Cpd. No. 15, seven days, mantle cell lymphoma cell line JEKO1 (CRL-3006)
Method in brief: as §1

[19] = system: GRANTA519; test: as above; format: cell-based; details: in combination with Cpd. No. 15, seven days, mantle cell lymphoma cell line GRANTA519 (ACC 342)
Method in brief: as §1

[20] = system: TOLEDO; test: as above; format: cell-based; details: in combination with Cpd. No. 15, seven days, DLBCL cell line TOLEDO
Method in brief: as §1

[21] = system: SUDHL5; test: as above; format: cell-based; details: in combination with Cpd. No. 15, seven days, DLBCL cell line SUDHL5
Method in brief: as §1

[22] = system: SUDHL10; test: as above; format: cell-based; details: in combination with Cpd. No. 15; 5-Day Cotreatment; DLBCL cell line SUDHL10
[23] = system: WSUDLCL2; test: as above; format: cell-based; details: in combination with Cpd. No. 15, seven days, DLBCL cell line WSUDLCL2
Method in brief: as §1

[24] = system: SUDHL6; test: as above; format: cell-based; details: in combination with Cpd. No. 15, seven days, DLBCL cell line SUDHL6
Method in brief: as §1

[25] = system: diffuse large B-cell lymphoma (DLBCL) cell lines; test: Co-treatment combination study with Cpd. No. 15, further cell lines (Table F), CellTiter-Glo viability, Loewe Volume; format: cell-based
Method in brief: as §1

Compound: C=CC(=O)N1CCC([C@@H]2CCNc3c(C(N)=O)c(-c4ccc(Oc5ccccc5)cc4)nn32)CC1 [Zanubrutinib, zanubrutinib]
- Combination effect with Cpd. No. 15 (Loewe Volume class), Farage ([1]; cell line Farage (Cat. No. CRL-2630)): Synergy (VLoewe>1: synergy)
- Combination effect with Cpd. No. 15 (Loewe Volume class), HT ([1]; cell line HT (Cat. No. CRL-2631)): Synergy (VLoewe>1: synergy)
- Combination effect with Cpd. No. 15 (Loewe Volume class), OCILY7 ([1]; cell line OCILY7 (Cat. No. ACC 688)): Synergy (VLoewe>1: synergy)
- Combination effect with Cpd. No. 15 (Loewe Volume class), SUDHL4 ([1]; cell line SUDHL4 (Cat. No. ACC 495)): Synergy (VLoewe>1: synergy)
- Combination effect (Loewe Volume) Z138 [2]: No Effect
- Combination effect (Loewe Volume) MAVER1 [3]: Synergy (VLoewe>1: synergy)
- Combination effect (Loewe Volume) HT [4]: No Effect
- Combination effect (Loewe Volume) KARPAS422 [5]: No Effect
- Combination effect (Loewe Volume) SUDHL2 [6]: No Effect
- Combination effect (Loewe Volume) RL [7]: No Effect
- Combination effect (Loewe Volume) DOHH2 [8]: Synergy (VLoewe>1: synergy)
- Combination effect (Loewe Volume) SUDHL4 [9]: Synergy (VLoewe>1: synergy)
- Combination effect (Loewe Volume) Pfeiffer [10]: No Effect
- Combination effect (Loewe Volume) DB [11]: No Effect
- Combination effect (Loewe Volume) REC1 [12]: Additivity (between 1 and −1: additivity)
- Combination effect (Loewe Volume) WILL2 [13]: Additivity (between 1 and −1: additivity)
- Combination effect (Loewe Volume) JVM2 [14]: Additivity (between 1 and −1: additivity)
- Combination effect (Loewe Volume) WSUNHL [15]: Additivity (between 1 and −1: additivity)
- Combination effect (Loewe Volume) MINO [16]: Synergy (VLoewe>1: synergy)
- Combination effect (Loewe Volume) SUDHL8 [17]: No Effect
- Combination effect (Loewe Volume) JEKO1 [18]: Synergy (VLoewe>1: synergy)
- Combination effect (Loewe Volume) GRANTA519 [19]: Additivity (between 1 and −1: additivity)
- Combination effect (Loewe Volume) TOLEDO [20]: Additivity (between 1 and −1: additivity)
- Combination effect (Loewe Volume) SUDHL5 [21]: No Effect
- Combination effect (Loewe Volume) SUDHL10 [22]: No Effect
- Combination effect (Loewe Volume) WSUDLCL2 [23]: Additivity (between 1 and −1: additivity)
- Combination effect (Loewe Volume) SUDHL6 [24]: Synergy (VLoewe>1: synergy)
- Combination effect with Cpd. No. 15 (Loewe Volume class), Ri1 ([25]; co-treatment with Cpd. No. 15, cell line Ri1 (Cat. No. 96090512-1VL)): Synergy (VLoewe>1: synergy)
- Combination effect with Cpd. No. 15 (Loewe Volume class), TMD8 ([25]; co-treatment with Cpd. No. 15, cell line TMD8 (Cat. No. M-097)): Synergy (VLoewe>1: synergy)
- Combination effect with Cpd. No. 15 (Loewe Volume class), WILL1 ([25]; co-treatment with Cpd. No. 15, cell line WILL1 (Cat. No. ACC 651)): No Effect
